According to patent US20240101572A1, “DIHYDROOXADIAZINONE COMPOUND AND PHARMACEUTICAL USE THEREOF” (Japan Tobacco Inc., priority 2022, published 2024):
Like-named read-outs stand apart in the source and are kept apart here.

Assays:
[1] = molecular target: full-length human PLD1 (Homo sapiens (Human), UniProt Q13393); assay: Evaluation of human PLD1 enzyme inhibitory activity (Amplex Red / choline oxidase fluorescence); type: biochemical; details: for IC50: full-length human PLD1 enzyme, read-out: PLD1 IC50
Chain of full-length human PLD1 (Q13393 other isoform, or with tags, fused parts or gaps): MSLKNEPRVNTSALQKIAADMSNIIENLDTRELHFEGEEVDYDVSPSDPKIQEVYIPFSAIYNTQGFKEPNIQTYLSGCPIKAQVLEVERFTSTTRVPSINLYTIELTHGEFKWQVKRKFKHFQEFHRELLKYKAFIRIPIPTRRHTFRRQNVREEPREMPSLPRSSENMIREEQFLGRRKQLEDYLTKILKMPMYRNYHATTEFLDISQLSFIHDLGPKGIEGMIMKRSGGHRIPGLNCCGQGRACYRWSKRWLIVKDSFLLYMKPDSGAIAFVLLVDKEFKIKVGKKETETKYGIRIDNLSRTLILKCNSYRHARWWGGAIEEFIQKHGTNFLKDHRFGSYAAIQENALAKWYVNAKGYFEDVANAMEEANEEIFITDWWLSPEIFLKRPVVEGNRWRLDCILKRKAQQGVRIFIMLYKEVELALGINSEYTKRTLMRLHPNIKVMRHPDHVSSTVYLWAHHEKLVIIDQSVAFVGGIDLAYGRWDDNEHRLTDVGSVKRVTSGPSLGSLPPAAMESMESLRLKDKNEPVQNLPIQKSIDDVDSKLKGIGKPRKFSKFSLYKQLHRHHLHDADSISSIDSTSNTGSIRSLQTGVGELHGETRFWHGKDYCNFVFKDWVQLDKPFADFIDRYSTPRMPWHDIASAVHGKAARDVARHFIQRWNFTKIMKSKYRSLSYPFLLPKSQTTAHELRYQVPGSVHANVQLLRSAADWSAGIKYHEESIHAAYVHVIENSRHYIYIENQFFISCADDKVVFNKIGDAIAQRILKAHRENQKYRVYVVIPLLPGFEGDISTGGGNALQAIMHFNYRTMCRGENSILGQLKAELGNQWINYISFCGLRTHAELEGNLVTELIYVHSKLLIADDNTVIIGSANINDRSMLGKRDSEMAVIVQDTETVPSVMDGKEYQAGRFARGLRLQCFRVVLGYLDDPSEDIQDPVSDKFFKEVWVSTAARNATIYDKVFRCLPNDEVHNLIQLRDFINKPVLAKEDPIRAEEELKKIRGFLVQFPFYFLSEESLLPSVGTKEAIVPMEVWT
In short: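 Fluorescence read-out couples choline to Amplex Red via choline oxidase and peroxidase after a 60 min room-temperature reaction. Enzyme: FLAG-tagged full-length human PLD1 from Expi293F cells, anti-FLAG purified; substrate diheptanoyl phosphatidylcholine; HEPES pH 7.5 assay buffer with 0.01% NP-40, 0.1% BSA, 5% DMSO final.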

[2] = molecular target: full-length human PLD2 (Homo sapiens (Human), UniProt O14939); assay: Evaluation of human PLD2 enzyme inhibitory activity (Amplex Red / choline oxidase fluorescence); type: biochemical; details: for IC50: full-length human PLD2 enzyme, read-out: PLD2 IC50
Chain of full-length human PLD2 (O14939 whole entry): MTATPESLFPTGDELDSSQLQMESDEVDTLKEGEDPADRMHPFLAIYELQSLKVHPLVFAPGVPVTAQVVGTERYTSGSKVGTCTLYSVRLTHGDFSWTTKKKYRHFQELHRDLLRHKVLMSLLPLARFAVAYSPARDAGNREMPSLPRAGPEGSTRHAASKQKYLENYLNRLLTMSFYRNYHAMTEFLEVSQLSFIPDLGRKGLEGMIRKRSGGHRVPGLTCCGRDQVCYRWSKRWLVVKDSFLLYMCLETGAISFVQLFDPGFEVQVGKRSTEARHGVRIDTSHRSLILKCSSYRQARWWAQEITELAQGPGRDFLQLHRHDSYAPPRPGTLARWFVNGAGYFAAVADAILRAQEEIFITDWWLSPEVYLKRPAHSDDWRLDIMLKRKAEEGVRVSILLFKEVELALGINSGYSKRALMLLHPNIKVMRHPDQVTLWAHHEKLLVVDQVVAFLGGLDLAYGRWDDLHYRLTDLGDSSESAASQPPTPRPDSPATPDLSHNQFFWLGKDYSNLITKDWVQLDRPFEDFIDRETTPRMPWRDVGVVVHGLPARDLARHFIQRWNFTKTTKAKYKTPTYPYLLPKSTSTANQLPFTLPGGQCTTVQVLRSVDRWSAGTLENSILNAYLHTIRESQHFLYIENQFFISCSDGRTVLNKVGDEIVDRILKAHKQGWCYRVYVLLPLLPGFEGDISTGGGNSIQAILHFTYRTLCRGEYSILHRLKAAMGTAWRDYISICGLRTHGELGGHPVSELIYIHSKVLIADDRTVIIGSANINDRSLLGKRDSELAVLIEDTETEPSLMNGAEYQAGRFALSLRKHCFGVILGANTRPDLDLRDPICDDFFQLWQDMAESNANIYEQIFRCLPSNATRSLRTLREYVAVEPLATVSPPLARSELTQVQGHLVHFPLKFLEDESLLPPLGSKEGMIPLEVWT
In short: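 Released choline was read by Amplex Red fluorescence coupled to choline oxidase and HRP after a 60 min room-temperature reaction. Substrate was diheptanoyl phosphatidylcholine, added as a 6 mmol/L solution, and enzyme was FLAG-tagged full-length human PLD2 from Expi293F, added as a 6 nmol/L solution. Buffer was 50 mM HEPES pH 7.5 with 5% final DMSO.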

SMILES | IC50 [1] [nM] | IC50 [2] [nM] | other results
CNC(=O)C(=O)N[C@@H](C)C[C@H]1CC[C@]2(CC1)OC(=O)NN=C2c1cc(Cl)ccc1I [Example 2-044] | < 10 | < 10 | –
Cc1cc(C(=O)N[C@@H](C)CC2CC[C@]3(C[C@@H]2F)OC(=O)NN=C3c2ccc(F)cc2Br)[nH]n1 (some centres unmarked) [Example 286] | 14 | < 10 | –
Cc1cc(C(=O)N[C@@H](C)C[C@H]2CC[C@]3(CC2)OC(=O)NN=C3c2cnc(N3CCOCC3)cc2C)[nH]n1 [Example 221] | 16 | < 10 | –
CNC(=O)C(=O)N[C@@H](C)CN1C[C@H]2CC[C@@H](C1)[C@@]21OC(=O)NN=C1c1ccc(F)cc1Cl [Example 196] | 27 | < 10 | –
Cc1cc(C(=O)N[C@@H](C)C[C@H]2CC[C@]3(CC2)OC(=O)NN=C3c2ccc(C#N)cc2C)[nH]n1 [Example 153] | 27 | 28 | –
Cc1cc(F)ccc1C1=NNC(=O)O[C@]12CC[C@@H](C[C@H](C)NC(=O)N1CC[C@@H](c3ccccc3)C1)CC2 [Example 138] | 774 | 1400 | –
CNC(=O)C(=O)N[C@@H](C)C[C@H]1CC[C@]2(CC1)OC(=O)NN=C2c1cnc(N2CCOCC2)cc1Cl [Example 242] | 16 | < 10 | –
CNC(=O)C(=O)N[C@@H](C)C[C@H]1CC[C@]2(CC1)OC(=O)NN=C2c1cnccc1Br [Example 151] | 18 | < 10 | –
CNC(=O)C(=O)N[C@@H](C)C[C@]1(C#N)CC[C@@]2(CC1)OC(=O)NN=C2c1cc(OC(F)F)ccc1Br [Example 2-055] | 11 | < 10 | –
CNC(=O)C(=O)N[C@@H](C)C[C@H]1CC[C@]2(CC1)OC(=O)NN=C2c1cnc(N2C[C@H]3C[C@@H]2CO3)cc1C [Example 267] | 26 | < 10 | –
CNC(=O)C(=O)N[C@@H](C)C[C@H]1CC[C@]2(CC1)OC(=O)NN=C2c1cnc(C2CC2)cc1Cl [Example 265] | 13 | < 10 | –
C[C@@H](C[C@H]1CC[C@]2(CC1)OC(=O)NN=C2c1cccc(OC(F)F)c1Br)NC(=O)C(=O)NC1CC1 [Example 308] | 15 | < 10 | –
CNC(=O)C(=O)N[C@@H](C)C[C@H]1CC[C@]2(CC1)OC(=O)NN=C2c1ccc(F)cc1I [Example 139] | < 10 | < 10 | –
C[C@@H](C[C@H]1CC[C@]2(CC1)OC(=O)NN=C2c1cc(C(C)(C)O)ccc1Br)NC(=O)C(=O)NC1CC1 [Example 2-045] | 18 | < 10 | –
C[C@@H](CN1CCC2(CC1)OC(=O)NN=C2c1cc(C#N)ccc1Br)NC(=O)CCC(F)(F)F [Example 2-023] | 102 | 64 | –
C[C@@H](C[C@H]1CC[C@]2(CC1)OC(=O)NN=C2c1ccc(F)cc1Br)NC(=O)/C=C/CN(C)C [Example 279] | 86 | 44 | –
CNC(=O)C(=O)N[C@@H](C)C[C@H]1CC[C@]2(CC1)OC(=O)NN=C2c1ccc(F)cc1C(C)C [Example 133] | 29 | 31 | –
C[C@@H](C[C@H]1CC[C@]2(CC1)OC(=O)NN=C2c1nccn1CC1CC1)NC(=O)c1cc(Cl)no1 [Example 83] | 259 | 221 | –
CNC(=O)C(=O)N[C@@H](C)C[C@H]1CC[C@]2(CC1)OC(=O)NN=C2c1ccc(S(=O)(=O)C(C)C)cc1Br [Example 66] | 16 | < 10 | –
CNC(=O)C(=O)N[C@@H](C)C[C@H]1CC[C@]2(CC1)OC(=O)NN=C2c1cnc(C)cc1Cl [Example 230, N^1—((S)-1-(cis-5-(4-chloro-6-methylpyridin-3-yl)-2-oxo-1-oxa-3,4-diazaspiro[5.5]undec-4-en-9-yl)propan-2-yl)-N^2-methyloxamide] | 21 | < 10 | –
C[C@@H](CN1CCC2(CC1)OC(=O)NN=C2c1cc(C#N)ccc1Br)NC(=O)c1cncn1C [Example 2-053] | 676 | 245 | –
Cc1cc(C(=O)N[C@@H](C)C[C@H]2CC[C@]3(CC2)OC(=O)NN=C3c2ccccc2Br)[nH]n1 [Example 27] | 14 | 13 | –
C[C@@H](C[C@H]1CC[C@]2(CC1)OC(=O)NN=C2c1ccc(F)cc1Br)NC(=O)C1(O)COC1 [Example 123] | 202 | 502 | –
Cc1cc(C(=O)N[C@@H](C)C[C@H]2CC[C@]3(CC2)OC(=O)NN=C3c2cccc(C#N)c2Br)[nH]n1 [Example 317] | 71 | 65 | –
C[C@@H](CN1CCC2(CC1)OC(=O)NN=C2c1ccc(F)cc1Cl)NC(=O)c1cc(Cl)no1 [Example 92] | 26 | 13 | –
CNC(=O)C(=O)N[C@@H](C)C[C@H]1CC[C@]2(CC1)OC(=O)NN=C2c1ccc(Br)cc1C [Example 161] | 20 | 13 | –

SMILES | IC50 [1] [nM] | IC50 [2] [nM] | other results
Cc1cnc(C(=O)N[C@@H](C)C[C@H]2CC[C@]3(CC2)OC(=O)NN=C3c2ccc(F)cc2Br)cn1 [Example 253] | 252 | 324 | –
C[C@H](NC(=O)c1cnn(C)c1)[C@H](C)[C@H]1CC[C@]2(CC1)OC(=O)NN=C2c1cc(C#N)ccc1Br [Example 339] | 39 | 10 | –
Cc1cc(C(=O)N[C@H](C)CN2CCC3(CC2)OC(=O)NN=C3c2ccc(F)cc2Br)[nH]n1 [Example 2-012] | 2040 | 245 | –
Cc1cc(C(=O)N[C@@H](C)C[C@H]2CC[C@]3(CC2)OC(=O)NN=C3c2cccc(Br)c2)[nH]n1 [Example 25] | 108 | 101 | –
Cc1cc(C(=O)N[C@@H](C)CN2CCC3(CC2)OC(=O)NN=C3c2cc(C#N)ccc2Cl)[nH]n1 [Example 2-007] | 28 | < 10 | –
COc1cc(C)c(C2=NNC(=O)O[C@]23CC[C@@H](C[C@H](C)NC(=O)N2CCc4ncccc4C2)CC3)cn1 [Example 264] | 36 | < 10 | –
C[C@@H](CN1CCC2(CC1)OC(=O)NN=C2c1cc(C#N)ccc1Br)NC(=O)C1COCCO1 (mixture of isomers) [Example 2-049] | 1740 | 1440 | –
C[C@@H](C[C@H]1CC[C@]2(CC1)OC(=O)NN=C2c1ccc(F)cc1Br)NC(=O)C(F)F [Example 211] | 102 | 429 | –
CNC(=O)C(=O)N[C@@H](C)C[C@H]1CC[C@]2(CC1)OC(=O)NN=C2c1ccccc1S(C)(=O)=O [Example 75] | 1630 | 1990 | –
CNC(=O)C(=O)N[C@@H](C)C[C@H]1CC[C@]2(CC1)OC(=O)NN=C2c1cnc(N2C[C@H]3C[C@@H]2CO3)cc1Cl [Example 243] | 24 | < 10 | –
C[C@@H](CN1CCC2(CC1)OC(=O)NN=C2c1ccc(F)cc1Br)NC(=O)C(=O)NC1CC1 [Example 180] | 28 | 12 | –
CNC(=O)C(=O)N[C@@H](C)C[C@H]1CC[C@]2(CC1)OC(=O)NN=C2c1cc(OCC(C)(C)O)ccc1Br [Example 2-014] | 22 | < 10 | –
C[C@@H](CN1CCC2(CC1)OC(=O)NN=C2c1ccc(C(N)=O)cc1Br)NC(=O)c1cnn(C)c1 [Example 337] | 74 | 28 | –
C[C@@H](CN1CCC2(CC1)OC(=O)NN=C2c1ccc(F)cc1Cl)NC(=O)c1cc(C(F)(F)F)on1 [Example 99] | 241 | 373 | –
C[C@@H](C[C@H]1CC[C@]2(CC1)OC(=O)NN=C2c1ccc(C#N)cc1Br)NC(=O)N1Cc2ccccc2C1 [Example 109] | 12 | < 10 | –
Cc1cc(C(=O)N[C@@H](C)C[C@H]2CC[C@]3(CC2)OC(=O)NN=C3c2cnc(N3CCC(F)(F)C3)cc2Cl)[nH]n1 [Example 224] | 13 | < 10 | –
Cc1cc(C(=O)N[C@@H](C)C[C@H]2CC[C@]3(CC2)OC(=O)NN=C3c2ccc(S(C)(=O)=O)cc2Br)[nH]n1 [Example 31] | 24 | < 10 | –
Cc1ccncc1C1=NNC(=O)O[C@]12CC[C@@H](C[C@H](C)NC(=O)c1cc3ccccc3o1)CC2 [Example 114] | 13 | < 10 | –
C[C@@H](C[C@]1(C#N)CC[C@@]2(CC1)OC(=O)NN=C2c1cc(OCC(F)F)ncc1Br)NC(=O)C(=O)NC1CC1 [Example 2-101] | – | – | inhibition at 10 µM ([1]; read-out: human PLD1 % inhibition at 10 μM): 13%; inhibition at 10 µM ([1]; read-out: inhibition rate of PLD1 at 10 μM compound): 13%; inhibition at 10 µM ([2]; read-out: human PLD2 % inhibition at 10 μM): 28%; inhibition at 10 µM ([2]; read-out: inhibition rate of PLD2 at 10 μM compound): 28%
Cc1cc(C(=O)N[C@@H](C)C[C@]2(F)CC[C@@]3(CC2)OC(=O)NN=C3c2cc(C#N)ccc2Br)[nH]n1 [Example 311] | 15 | < 10 | –
Cc1cc(C(=O)N[C@@H](C)C[C@H]2CC[C@]3(CC2)OC(=O)NN=C3c2cnc(N3CCOCC3)cc2Cl)[nH]n1 [Example 226] | 18 | < 10 | –
CNC(=O)C(=O)N[C@@H](C)C[C@H]1CC[C@]2(CC1)OC(=O)NN=C2c1ccc(C)cc1C [Example 145] | 17 | < 10 | –
C[C@@H](CN1CCC2(CC1)OC(=O)NN=C2c1ccc(C#N)cc1Br)NC(=O)c1cc(Cl)no1 [Example 2-061] | 14 | < 10 | –
Cc1cc(F)ccc1C1=NNC(=O)O[C@]12CC[C@@H](C[C@H](C)NC(=O)N1Cc3ccccc3C1)CC2 [Example 101] | < 10 | < 10 | –
Cc1cc(F)ccc1C1=NNC(=O)O[C@]12CC[C@@H](C[C@H](C)NC(=O)N1CCCC1)CC2 [Example 136] | 155 | 170 | –
